Assay results as given in US4411832A, “Polysaccharide matrices comprising macromolecular spacer arms for use as adsorbents in affinity chromatography techniques” (priority 1981, dated 1983).

Target: T1, estradiol receptor (Bos taurus, UniProt P49884)
T1 construct: incubated in suspension with varying concentrations of [^3 H]estradiol and with the uterine supernatant; from tissue; host or cells: uterus (uterine supernatant)
T1 sequence (P49884 1-596): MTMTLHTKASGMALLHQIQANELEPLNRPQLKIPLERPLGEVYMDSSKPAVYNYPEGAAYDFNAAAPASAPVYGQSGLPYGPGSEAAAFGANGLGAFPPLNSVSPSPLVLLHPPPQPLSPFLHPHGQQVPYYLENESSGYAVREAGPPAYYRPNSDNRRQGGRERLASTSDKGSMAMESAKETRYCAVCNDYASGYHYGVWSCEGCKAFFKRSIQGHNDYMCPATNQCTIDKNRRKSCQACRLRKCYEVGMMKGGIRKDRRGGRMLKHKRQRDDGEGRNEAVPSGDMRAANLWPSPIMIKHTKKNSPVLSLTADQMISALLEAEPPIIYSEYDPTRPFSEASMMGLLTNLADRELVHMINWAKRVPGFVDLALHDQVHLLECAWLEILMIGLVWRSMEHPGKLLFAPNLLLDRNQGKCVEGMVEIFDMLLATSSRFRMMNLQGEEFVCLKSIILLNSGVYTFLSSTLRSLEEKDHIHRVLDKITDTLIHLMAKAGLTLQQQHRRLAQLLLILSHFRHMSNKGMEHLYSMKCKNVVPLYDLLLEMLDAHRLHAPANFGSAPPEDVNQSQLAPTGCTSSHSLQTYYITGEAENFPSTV
Experiment: Affinity of the estradiol receptor for agarose-estradiol derivatives (incubation with [3H]estradiol and uterine supernatant, reciprocal plots)
Assay type: binding
Details: free ligand, uterine supernatant, estimated, read-out: dissociation constant
Protocol: Experiments were performed to estimate the affinity of the estradiol receptor for the macromolecular agarose-estradiol derivatives to compare the relative affinities of the various derivatives. The adsorbents are incubated in suspension with varying concentrations of [^3 H]estradiol and with the uterine supernatant, and the data were plotted in reciprocal plots to estimate the comparative affinities toward the estradiol receptor.

C[C@]12CC[C@@H]3c4ccc(O)cc4CC[C@H]3[C@@H]1CC[C@@H]2OC(=O)CCC(=O)O [17β-estradiol 17-hemisuccinate] showed a Kd of ~700 nM.
